In US20230219900A1, “Sodium 2-[(4S)-8-fluoro-2-[4-(3-methoxyphenyl)piperazin-1-yl]-3-[2-methoxy-5-(trifluoromethyl)phenyl]-4H-quinazolin-4-yl]acetate monohydrate, its preparation and use” (AIC246 AG & CO. KG, priority 2020, published 2023):

Columns and labels:
Format in all cases: physicochemical
[1] = Stability experiments: ageing (ambient conditions); details: for Time stable at ambient conditions: monohydrate
[2] = Thermal stability / decomposition by thermogravimetric analysis (TGA)
Description: Thermogravimetric analysis (TGA): Thermogravimetric analyses were recorded in a Mettler Toledo TGA/SDTA851 with a balance MT1 type. Approximately 3-4 mg of sample were weighed (using a MX5 Mettler Toledo microbalance) into 40 μL aluminium crucibles with a pinhole lid and heated under nitrogen (10 mL/min) at 10° C./min from 30° C. to 300° C. Programs used: Data collection and evaluation with software STARe.

[3] = Stability experiments: ageing (humidity chamber)
[4] = Solubility in an aqueous medium; details: in particular at physiological pH
[5] = Storage stability in an aqueous medium; details: in particular at physiological pH
Dynamic vapor sorption = test: Dynamic vapor sorption
Description: The sodium (S)-{8-fluoro-2-[4-(3-methoxyphenyl)piperazine-1-yl]-3-[2-methoxy (trifluoromethyl)phenyl]-3,4-dihydroquinazoline-4-yl}acetate monohydrate obtained from examples 07 and 08 were analyzed using X-Ray Diffraction, NMR spectroscopy, Thermal gravimetric analysis, Differential scanning calorimetry and dynamic vapor sorption.

[6] = Stability experiments: heating (vacuum oven); details: 2-3 mbar

| Structure (SMILES) | Stability under ambient conditions (in words) [1] | Stability, ageing (ambient conditions) ([1]; 25° C., 30-40% RH, 24 hours) | Stability, ageing (ambient conditions) ([1]; within 24 hours) | Decomposition temperature (TGA) ([2]; TGA) | Stability, ageing (humidity chamber) ([3]; 25° C./60% RH, 24-72 hours) | Stability, ageing (ambient conditions, closed vial) ([1]; after 4 weeks) | Time stable at ambient conditions ([1]; listed as Form B) | Time stable at ambient conditions [1] | Solubility [4] | Storage stability [5] | Dynamic vapor sorption weight increase (Dynamic vapor sorption; from 10 to 80% RH) | Dynamic vapor sorption weight increase (Dynamic vapor sorption; from 80 to 90% RH) | Stability, heating (vacuum oven) ([6]; 40° C., 15 h) | Stability, heating (vacuum oven) ([6]; 50° C., 60 h) | Temperature up to which thermally stable (TGA) ([2]; as judged by TGA) | Stability, ageing (humidity chamber) ([3]; 25° C./60% RH, 72 hours) | Stability, ageing (humidity chamber) ([3]; 30° C./75% RH, 48 hours) | Ageing at higher temperatures and higher humidity ([3]; higher temperatures and higher humidity) |
| --- | --- | --- | --- | --- | --- | --- | --- | --- | --- | --- | --- | --- | --- | --- | --- | --- | --- | --- |
| COc1cccc(N2CCN(C3=Nc4c(F)cccc4[C@H](CC(=O)[O-])N3c3cc(C(F)(F)F)ccc3OC)CC2)c1.[Na+] [Form A, Sodium (S)-{8-fluoro-2-[4-(3-methoxyphenyl)piperazine-1-yl]-3-[2-methoxy-5-(trifluoromethyl)phenyl]-3,4-dihydroquinazoline-4-yl}acetate] | not stable under ambient conditions | 25° C., 30-40% RH, 24 hours: Turns into | Complete transition into Form B within in | Decomposition at ca. 250 °C | 25° C./60% RH, 24-72 hours: Turns into | – | – | – | – | – | – | – | – | – | – | – | – | – |
| COc1cccc(N2CCN(C3=Nc4c(F)cccc4[C@H](CC(=O)[O-])N3c3cc(C(F)(F)F)ccc3OC)CC2)c1.O.[Na+] [sodium letermovir monohydrate, sodium 2-[(4S)-8-fluoro-2-[4-(3-methoxyphenyl)piperazin-1-yl]-3-[2-methoxy-5-(trifluoromethyl)phenyl]-4H-quinazolin-4-yl]acetate monohydrate] | – | – | – | – | – | No significant changes after 4 weeks. | over 6 months | over 4 weeks | readily soluble | good storage stability | >9.5% weight increase from 10 to 80% RH | >8% weight increase from 80 to 90% RH | 40° C., 2-3 mbar, 15 h: No changes, | 50° C., 2-3 mbar, 60 h: No changes | above 80 °C | 25° C./60% RH, 72 hours: minor changes | 30° C./75% RH, 48 hours: amorphous | does not age |
